The structures appear in SMILES notation. Converted amounts (≈) assume the structure as drawn.

Test [1] has as its system Pseudomonas aeruginosa. The format is functional. The following applies: isolate Paebeta-13.
Test [2] has as its system Pseudomonas aeruginosa. The format is functional. As to conditions: isolate Paebeta-22.
For test [3], the system named is Pseudomonas aeruginosa. The format is functional. As to conditions: isolate Paebeta-09.
The subject of test [4] is Pseudomonas aeruginosa. Put plainly: microbe, parasite or virus in culture. As to conditions: isolate Paebeta-12.
Description: Antibacterial activity against mexB, mexY and mexD expressing Pseudomonas aeruginosa isolate Paebeta-12 harboring A residue at 105 position in PDC- 2 and polymorphic OprD gene by Etest method in presence of cloxacillin
In test [5] the test system is Pseudomonas aeruginosa. The class given is functional. The following applies: isolate Paebeta-25.
The test system of test [6] is Pseudomonas aeruginosa. The format is functional. The following applies: isolate Paebeta-15.
Test [7] concerns Pseudomonas aeruginosa. The class given is functional. The following applies: isolate Paebeta-17.
For test [8], the system named is Pseudomonas aeruginosa. The format is functional. The following applies: isolate Paebeta-05.
The subject of test [9] is Pseudomonas aeruginosa. The class given is functional. As to conditions: isolate Paebeta-04.
The subject of test [10] is Pseudomonas aeruginosa. The class given is functional. As to conditions: isolate Paebeta-04. The source holds these as a separate data set.
Test [11] concerns Pseudomonas aeruginosa. The class given is functional. As to conditions: isolate Paebeta-29.
For test [12], the system named is Pseudomonas aeruginosa. The class given is functional. As to conditions: isolate Paebeta-28.
Test [13] concerns Pseudomonas aeruginosa. The format is functional. The following applies: isolate Paebeta-03.
The subject of test [14] is Pseudomonas aeruginosa. The class given is functional. The following applies: isolate Paebeta-23.
The test system of test [15] is Pseudomonas aeruginosa. The class given is functional. The following applies: isolate Paebeta-20.
The test system of test [16] is Pseudomonas aeruginosa. The class given is functional. The following applies: isolate Paebeta-27.
Test [17] has as its system Pseudomonas aeruginosa. The format is functional. As to conditions: isolate Paebeta-06.
The subject of test [18] is Pseudomonas aeruginosa. The format is functional. The following applies: isolate Paebeta-09. The source holds these as a separate data set.
The subject of test [19] is Pseudomonas aeruginosa. The class given is functional. The following applies: isolate Paebeta-18.
For test [20], the system named is Pseudomonas aeruginosa. The format is functional. As to conditions: isolate Paebeta-24.
For test [21], the system named is Pseudomonas aeruginosa. The format is functional. The following applies: isolate Paebeta-21.
Test [22] relates to Pseudomonas aeruginosa. The class given is functional. The following applies: isolate Paebeta-07.
Test [23] relates to Pseudomonas aeruginosa. The format is functional. The following applies: isolate Paebeta-20. The source holds these as a separate data set.
In test [24] the test system is Pseudomonas aeruginosa. The format is functional. The following applies: isolate Paebeta-11.
Test [25] deals with Pseudomonas aeruginosa. The format is functional. The following applies: isolate Paebeta-28. This is another data set of the same source.
Test [26] deals with Pseudomonas aeruginosa. The format is functional. The following applies: isolate Paebeta-30.
The subject of test [27] is Pseudomonas aeruginosa. The class given is functional. The following applies: isolate Paebeta-29. The source holds these as a separate data set.
In test [28] the test system is Pseudomonas aeruginosa. The format is functional. The following applies: isolate Paebeta-23. The source holds these as a separate data set.
Test [29] relates to Pseudomonas aeruginosa. The class given is functional. The following applies: isolate Paebeta-25. This is another data set of the same source.
Test [30] deals with Pseudomonas aeruginosa. The class given is functional. As to conditions: isolate Paebeta-05. The source holds these as a separate data set.
Test [31] relates to Pseudomonas aeruginosa. The format is functional. As to conditions: isolate Paebeta-22. This is another data set of the same source.
The subject of test [32] is Pseudomonas aeruginosa. The class given is functional. The following applies: isolate Paebeta-10.
Test [33] deals with Pseudomonas aeruginosa. The format is functional. As to conditions: isolate Paebeta-06. This is another data set of the same source.
For test [34], the system named is Pseudomonas aeruginosa. The format is functional. As to conditions: isolate Paebeta-13. The source holds these as a separate data set.
For test [35], the system named is Pseudomonas aeruginosa. The format is functional. As to conditions: isolate Paebeta-03. The source holds these as a separate data set.
The subject of test [36] is Pseudomonas aeruginosa. The class given is functional. As to conditions: isolate Paebeta-24. This is another data set of the same source.
Test [37] concerns Pseudomonas aeruginosa. The class given is functional. The following applies: isolate Paebeta-10. The source holds these as a separate data set.
Test [38] has as its system Pseudomonas aeruginosa. The class given is functional. As to conditions: isolate Paebeta-30. The source holds these as a separate data set.
The subject of test [39] is Pseudomonas aeruginosa. The class given is functional. The following applies: isolate Paebeta-19.
For test [40], the system named is Pseudomonas aeruginosa. The class given is functional. As to conditions: isolate Paebeta-31.
In test [41] the test system is Pseudomonas aeruginosa. The format is functional. As to conditions: isolate Paebeta-12.
For test [42], the system named is Pseudomonas aeruginosa. The class given is functional. The following applies: isolate Paebeta-21. This is another data set of the same source.
In test [43] the test system is Pseudomonas aeruginosa. The class given is functional. As to conditions: isolate Paebeta-07. This is another data set of the same source.
Test [44] relates to Pseudomonas aeruginosa. The format is functional. As to conditions: isolate Paebeta-32.
Test [45] relates to Pseudomonas aeruginosa. The class given is functional. As to conditions: isolate Paebeta-08.
The test system of test [46] is Pseudomonas aeruginosa. The format is functional. As to conditions: isolate Paebeta-14.
The subject of test [47] is Pseudomonas aeruginosa. The format is functional. As to conditions: isolate Paebeta-16.
Test [48] deals with Pseudomonas aeruginosa. The class given is functional. The following applies: isolate Paebeta-08. This is another data set of the same source.
For test [49], the system named is Pseudomonas aeruginosa. The class given is functional. The following applies: isolate Paebeta-32. This is another data set of the same source.
Test [50] relates to Pseudomonas aeruginosa. The format is functional. As to conditions: isolate Paebeta-17. This is another data set of the same source.
Test [51] has as its system Pseudomonas aeruginosa. The format is functional. The following applies: isolate Paebeta-18. The source holds these as a separate data set.
For test [52], the system named is Pseudomonas aeruginosa. The format is functional. The following applies: isolate Paebeta-16. This is another data set of the same source.
Test [53] concerns Pseudomonas aeruginosa. The class given is functional. The following applies: isolate Paebeta-11. This is another data set of the same source.
The test system of test [54] is Pseudomonas aeruginosa. The format is functional. The following applies: isolate Paebeta-14. This is another data set of the same source.
The test system of test [55] is Pseudomonas aeruginosa. The class given is functional. As to conditions: isolate Paebeta-27. The source holds these as a separate data set.
Test [56] relates to Pseudomonas aeruginosa. The class given is functional. The following applies: isolate Paebeta-31. This is another data set of the same source.
Test [57] deals with Pseudomonas aeruginosa. The format is functional. As to conditions: isolate Paebeta-26.

In the case of `C[C@@H](O)[C@H]1C(=O)N2C(C(=O)O)=C(SCCNC=N)C[C@H]12` [IMIPENEM ANHYDROUS], the MIC in the test with Pseudomonas aeruginosa [1] worked out at 16 µg/mL (≈ 53.4 µM); in the test with Pseudomonas aeruginosa [2], 0.5 µg/mL (≈ 1.67 µM); against Pseudomonas aeruginosa [3], 2 µg/mL (≈ 6.68 µM); in the test on Pseudomonas aeruginosa [4], 1 µg/mL (≈ 3.34 µM); in the test on Pseudomonas aeruginosa [5] it was 8 µg/mL (≈ 26.7 µM); in the test on Pseudomonas aeruginosa [6], 16 µg/mL (≈ 53.4 µM). In addition, the MIC in the test on Pseudomonas aeruginosa [7] was found to be 8 µg/mL (≈ 26.7 µM); with Pseudomonas aeruginosa [8], 16 µg/mL (≈ 53.4 µM); with Pseudomonas aeruginosa [9], 4 µg/mL (≈ 13.4 µM); with Pseudomonas aeruginosa [10], 16 µg/mL (≈ 53.4 µM); against Pseudomonas aeruginosa [11] it was 16 µg/mL (≈ 53.4 µM); in the test with Pseudomonas aeruginosa [12], 16 µg/mL (≈ 53.4 µM). Further, the MIC in the test with Pseudomonas aeruginosa [13] is 2 µg/mL (≈ 6.68 µM); with Pseudomonas aeruginosa [14], 8 µg/mL (≈ 26.7 µM); in the test on Pseudomonas aeruginosa [15] it was 4 µg/mL (≈ 13.4 µM); in the test with Pseudomonas aeruginosa [16] it was 32 µg/mL (≈ 107 µM); in the test with Pseudomonas aeruginosa [17], 16 µg/mL (≈ 53.4 µM); against Pseudomonas aeruginosa [18] it was 16 µg/mL (≈ 53.4 µM). Further, the MIC against Pseudomonas aeruginosa [19] is 16 µg/mL (≈ 53.4 µM); in the test with Pseudomonas aeruginosa [20], 8 µg/mL (≈ 26.7 µM); against Pseudomonas aeruginosa [21] it was 16 µg/mL (≈ 53.4 µM); in the test with Pseudomonas aeruginosa [22], 2 µg/mL (≈ 6.68 µM); in the test with Pseudomonas aeruginosa [23], 16 µg/mL (≈ 53.4 µM); against Pseudomonas aeruginosa [24], 2 µg/mL (≈ 6.68 µM). The MIC came to 4 µg/mL (≈ 13.4 µM) with Pseudomonas aeruginosa [25]; 8 µg/mL (≈ 26.7 µM) against Pseudomonas aeruginosa [26]; 16 µg/mL (≈ 53.4 µM) in the test on Pseudomonas aeruginosa [27]; 32 µg/mL (≈ 107 µM) with Pseudomonas aeruginosa [28]; 8 µg/mL (≈ 26.7 µM) against Pseudomonas aeruginosa [29]; 16 µg/mL (≈ 53.4 µM) in the test with Pseudomonas aeruginosa [30]. For the same molecule, the MIC with Pseudomonas aeruginosa [31] amounted to 8 µg/mL (≈ 26.7 µM); in the test on Pseudomonas aeruginosa [32], 2 µg/mL (≈ 6.68 µM); against Pseudomonas aeruginosa [33] it was 2 µg/mL (≈ 6.68 µM); against Pseudomonas aeruginosa [34] it was 0.5 µg/mL (≈ 1.67 µM); against Pseudomonas aeruginosa [35], 16 µg/mL (≈ 53.4 µM); against Pseudomonas aeruginosa [36] it was 32 µg/mL (≈ 107 µM). The MIC against Pseudomonas aeruginosa [37] was 16 µg/mL (≈ 53.4 µM); in the test with Pseudomonas aeruginosa [38], 8 µg/mL (≈ 26.7 µM); against Pseudomonas aeruginosa [39] it was 4 µg/mL (≈ 13.4 µM); in the test on Pseudomonas aeruginosa [40], 16 µg/mL (≈ 53.4 µM); with Pseudomonas aeruginosa [41] it was 16 µg/mL (≈ 53.4 µM); with Pseudomonas aeruginosa [42], 2 µg/mL (≈ 6.68 µM). For the same molecule, the MIC is 16 µg/mL (≈ 53.4 µM) against Pseudomonas aeruginosa [43]; 16 µg/mL (≈ 53.4 µM) with Pseudomonas aeruginosa [44]; 2 µg/mL (≈ 6.68 µM) against Pseudomonas aeruginosa [45]; 2 µg/mL (≈ 6.68 µM) in the test on Pseudomonas aeruginosa [46]; 4 µg/mL (≈ 13.4 µM) in the test on Pseudomonas aeruginosa [47]; 16 µg/mL (≈ 53.4 µM) in the test with Pseudomonas aeruginosa [48]. The MIC was 64 µg/mL (≈ 214 µM) in the test on Pseudomonas aeruginosa [49]; 32 µg/mL (≈ 107 µM) against Pseudomonas aeruginosa [50]; 64 µg/mL (≈ 214 µM) in the test on Pseudomonas aeruginosa [51]; 32 µg/mL (≈ 107 µM) in the test with Pseudomonas aeruginosa [52]; 16 µg/mL (≈ 53.4 µM) against Pseudomonas aeruginosa [53]; 16 µg/mL (≈ 53.4 µM) against Pseudomonas aeruginosa [54]. The MIC in the test with Pseudomonas aeruginosa [55] came to 16 µg/mL (≈ 53.4 µM); in the test on Pseudomonas aeruginosa [56], 16 µg/mL (≈ 53.4 µM); in the test with Pseudomonas aeruginosa [57], 4 µg/mL (≈ 13.4 µM).
For `C[C@H]1[C@H](NC(=O)/C(=N\OC(C)(C)C(=O)O)c2csc(N)n2)C(=O)N1S(=O)(=O)O` [AZTREONAM], in the test with Pseudomonas aeruginosa [51], the MIC worked out at 128 µg/mL (≈ 294 µM).
For the molecule `CO/N=C(\C(=O)N[C@@H]1C(=O)N2C(C(=O)[O-])=C(C[N+]3(C)CCCC3)CS[C@H]12)c1csc(N)n1`, the MIC against Pseudomonas aeruginosa [6] was determined as 128 µg/mL (≈ 266 µM); against Pseudomonas aeruginosa [16] it was 64 µg/mL (≈ 133 µM); with Pseudomonas aeruginosa [35] it was 64 µg/mL (≈ 133 µM); in the test with Pseudomonas aeruginosa [36], 64 µg/mL (≈ 133 µM); in the test with Pseudomonas aeruginosa [51], 128 µg/mL (≈ 266 µM).

The values above are taken from ChEMBL document CHEMBL1649267, “Molecular epidemiology and mechanisms of carbapenem resistance in Pseudomonas aeruginosa” (2009).
